Reference: publication PMC11728000, “Antitumor Activity and Multi-Target Mechanism of Phenolic Schiff Bases Bearing Methanesulfonamide Fragments: Cell Cycle Analysis and a Molecular Modeling Study” (International Journal of Molecular Sciences, 2024)
Like-named read-outs stand apart in the source and are kept apart here.

What was measured:
CCRF-CEM = assay: NCI anticancer screening (SRB), Leukemia subpanel; format: cell-based, human; settings: for GI%: 10.0 µM in one dose
HL-60(TB) = assay: NCI anticancer screening (SRB), Leukemia subpanel; format: cell-based, human; settings: for GI%: 10.0 µM in one dose
K-562 = assay: NCI anticancer screening (SRB), Leukemia subpanel; format: cell-based, human; settings: for GI%: 10.0 µM in one dose
SR = assay: NCI anticancer screening (SRB), Leukemia subpanel; format: cell-based, human; settings: for GI%: 10.0 µM in one dose
HOP-62 = assay: NCI anticancer screening (SRB), Non-Small Cell Lung Cancer subpanel; format: cell-based, human; settings: for GI%: 10.0 µM in one dose
HOP-92 [1] = assay: as above; format: cell-based, human; settings: for GI%: 10.0 µM in one dose
HCC-2998 = assay: NCI anticancer screening (SRB), Colon Cancer subpanel; format: cell-based, human; settings: for GI%: 10.0 µM in one dose
KM12 = assay: as above; format: cell-based, human; settings: for GI%: 10.0 µM in one dose
SF-268 = assay: NCI anticancer screening (SRB), CNS Cancer subpanel; format: cell-based, human; settings: for GI%: 10.0 µM in one dose
U251 = assay: as above; format: cell-based, human; settings: for GI%: 10.0 µM in one dose
M14 = assay: NCI anticancer screening (SRB), Melanoma subpanel; format: cell-based, human; settings: for GI%: 10.0 µM in one dose
SK-MEL-28 = assay: NCI anticancer screening (SRB), Melanoma subpanel; format: cell-based, human; settings: for GI%: 10.0 µM in one dose
NCI/ADR-RES = assay: NCI anticancer screening (SRB), Ovarian Cancer subpanel; format: cell-based, human; settings: for GI%: 10.0 µM in one dose
ACHN = assay: NCI anticancer screening (SRB), Renal Cancer subpanel; format: cell-based, human; settings: for GI%: 10.0 µM in one dose
MCF-7 = assay: NCI anticancer screening (SRB), Breast Cancer subpanel; format: cell-based, human; settings: for GI%: 10.0 µM in one dose
HS 578T = assay: as above; format: cell-based, human; settings: for GI%: 10.0 µM in one dose
BT-549 = assay: as above; format: cell-based, human; settings: for GI%: 10.0 µM in one dose
COX-2 = biological target: T1, COX-2 (Ovis aries, UniProt P79208); assay: biochemical; settings: read-out: IC50, COX-2 Inhibition
T1 construct: purchased Cayman Chemical 560101
T1 sequence (P79208 17-603): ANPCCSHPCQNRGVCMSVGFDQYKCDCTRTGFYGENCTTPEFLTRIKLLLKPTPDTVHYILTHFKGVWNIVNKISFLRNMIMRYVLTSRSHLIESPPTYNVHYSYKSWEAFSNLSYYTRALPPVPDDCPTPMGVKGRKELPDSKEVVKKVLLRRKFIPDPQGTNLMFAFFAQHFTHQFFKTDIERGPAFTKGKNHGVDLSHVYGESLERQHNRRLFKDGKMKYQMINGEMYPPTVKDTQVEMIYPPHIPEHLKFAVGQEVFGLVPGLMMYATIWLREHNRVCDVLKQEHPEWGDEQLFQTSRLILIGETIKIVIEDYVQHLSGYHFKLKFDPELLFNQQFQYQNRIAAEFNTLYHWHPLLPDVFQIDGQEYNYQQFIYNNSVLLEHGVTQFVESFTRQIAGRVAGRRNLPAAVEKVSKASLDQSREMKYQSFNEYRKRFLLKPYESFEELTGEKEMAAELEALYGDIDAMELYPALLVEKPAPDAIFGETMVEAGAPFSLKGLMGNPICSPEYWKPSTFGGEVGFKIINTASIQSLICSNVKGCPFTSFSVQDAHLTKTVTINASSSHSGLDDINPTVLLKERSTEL
Method: the measured protein at the end of the drug treatment as compared to that at the beginning) indicating a net loss of cells following treatment was calculated from [(Ti − Tz)/Tz] […] = − 50.
Values were calculated for each of these three parameters if the activity level was reached; however, if the effect was not reached or exceeded, that parameter's value was expressed as more or less than the maximum or minimum concentration tested. The log GI50, log TGI, and log LC50 were then determined and defined as the mean of the logs of the individual GI50, TGI, and LC50 values. The lowest values are obtained with the most sensitive cell lines. The compound with […]
2. In vitro cytotoxic activity towards normal fibroblast (WI-38) cells Cell Lines were obtained from the American Type Culture Collection; cells were cultured using DMEM (Invitrogen/Life Technologies) supplemented with 10% FBS (Hyclone), ten ug/ml of insulin (Sigma), and 1% penicillin–streptomycin. Cultures were removed from the incubator into a laminar flow hood, reconstituted with 3 mL of balanced salt solution without phenol red and serum, and then added to an amount equal to 10% of the culture medium volume. […]
medium volume. The absorbance was measured Spectrophotometrically at a wavelength of 570 […]
The ability of the test compounds to inhibit COX-2 was determined using an enzyme immunoassay […]

Bcl-2 = assay: Apoptotic markers assay, Bcl-2 expression in MCF-7 cells; format: cell-based, human; settings: MCF-7 cells treated at IC50 concentrations; vs untreated control = 1
Method: (§1) We measured the apoptosis promoter Bax levels, the apoptosis inhibitor Bcl−2, and the apoptosis coordination enzymes caspase-8 and caspase-9 [32].
(§2) The apoptotic marker method was carried out using the reported procedure using MCF-7, the cancer cell line (Supplementary Materials). […]
photomultiplier voltage and for compensation setting adjustment to eliminate spectral overlap between the FL1 and the FL2 signals.
6. Cell cycle analysis
Breast carcinoma (MCF-7) cell was seeded at 2 × 10^5 cells/well density and incubated for 24 h in six-well plates. Foetal bovine serum (10%) was added, and the cells were incubated at 37 °C in an atmosphere of 5% CO2. The medium was replaced with 1% (v/v) DMSO containing 10.0 μM of […]
with 70% ethanol, rinsed with phosphate-buffered saline, and then stained with the DNA fluorochrome propidium iodide (PI) for 15 min at 37 °C. Then, samples were analyzed by flow cytometry using a FACSCalibur (Becton Dickinson). The cell cycle distributions were calculated using CellQuest software (Becton Dickinson).
(§3) 7. Caspase-8 and 9 activation assay
(§4) A breast carcinoma (MCF-7) cell line was obtained from ATCC. […]
allowed cells to grow at 37 °C, stimulated with the compounds to be tested for caspase-8 or caspase-9 and lysed with Cell Extraction Buffer. […]

caspase-8 = assay: Apoptotic markers assay, caspase-8 level in MCF-7 cells; format: cell-based, human; settings: MCF-7 cells treated at IC50 concentrations; vs untreated control = 1
Method: as §1, §2, §3, §4
allowed cells to grow at 37 °C, stimulated with the compounds to be tested for caspase-8 or caspase-9 and lysed with Cell Extraction Buffer. Standard Diluent Buffer was used to dilute the lysate over the range of the assay and measure human active caspase-8 or caspase-9 content. (cells are Plated in a density of 1.2-1.8 X 10,000 cells/well in a volume of 100 µL complete growth medium + 100 µL of the tested compound per well in a 96-well plate for 24/48 h before the enzyme assay).
8. Evaluation of Bax and Bcl-2 expressions m RNA isolation was carried out using an RNeasy extraction kit, up to 1 X 107 cells. They were disrupted in Buffer RLT and homogenized. Ethanol was added to the lysate to promote the selective binding of RNA to the RNeasy membrane. Then, the sample was applied to the RNeasy

HER2 = HER2 (Homo sapiens, UniProt P04626); assay: HER2 tyrosine kinase inhibition assay (ADP-Glo)
Chain of HER2 (P04626 23-1255): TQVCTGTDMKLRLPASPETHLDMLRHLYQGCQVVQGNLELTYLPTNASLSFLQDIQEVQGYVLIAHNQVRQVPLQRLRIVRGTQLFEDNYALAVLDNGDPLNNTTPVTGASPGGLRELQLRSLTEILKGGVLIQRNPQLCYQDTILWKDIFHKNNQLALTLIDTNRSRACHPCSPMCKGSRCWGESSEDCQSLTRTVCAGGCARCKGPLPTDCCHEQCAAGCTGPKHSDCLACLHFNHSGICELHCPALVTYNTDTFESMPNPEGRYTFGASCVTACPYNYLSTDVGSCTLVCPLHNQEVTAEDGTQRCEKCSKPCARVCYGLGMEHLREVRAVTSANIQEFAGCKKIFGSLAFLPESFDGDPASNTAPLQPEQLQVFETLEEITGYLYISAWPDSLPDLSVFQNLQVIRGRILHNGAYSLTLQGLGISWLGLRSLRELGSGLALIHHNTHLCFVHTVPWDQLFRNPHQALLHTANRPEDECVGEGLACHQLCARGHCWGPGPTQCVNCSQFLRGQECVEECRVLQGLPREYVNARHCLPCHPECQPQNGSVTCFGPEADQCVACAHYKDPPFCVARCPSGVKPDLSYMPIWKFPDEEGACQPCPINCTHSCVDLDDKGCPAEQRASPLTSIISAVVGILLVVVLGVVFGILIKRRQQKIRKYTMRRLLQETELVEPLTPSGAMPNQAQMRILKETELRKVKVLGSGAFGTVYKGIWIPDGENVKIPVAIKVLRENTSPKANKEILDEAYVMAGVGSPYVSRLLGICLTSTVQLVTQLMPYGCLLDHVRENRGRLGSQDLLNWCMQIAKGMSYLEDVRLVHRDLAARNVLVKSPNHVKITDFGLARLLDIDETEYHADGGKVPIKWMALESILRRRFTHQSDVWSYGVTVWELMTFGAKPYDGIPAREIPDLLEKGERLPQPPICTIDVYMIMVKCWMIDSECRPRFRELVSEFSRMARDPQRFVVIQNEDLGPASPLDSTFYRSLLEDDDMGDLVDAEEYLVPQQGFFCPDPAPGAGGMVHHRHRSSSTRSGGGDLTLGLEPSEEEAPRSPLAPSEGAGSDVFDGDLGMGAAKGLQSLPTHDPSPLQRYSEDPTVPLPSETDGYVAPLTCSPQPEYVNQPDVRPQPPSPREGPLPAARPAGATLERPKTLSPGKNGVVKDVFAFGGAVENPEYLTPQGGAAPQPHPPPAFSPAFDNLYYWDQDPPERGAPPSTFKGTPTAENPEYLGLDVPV

HOP-92 [2] = system: HOP-92; set-up: method as in https://dtp.cancer.gov/dtpstandard/dwindex/index.jsp; settings: ref https://dtp.cancer.gov/dtpstandard/dwindex/index.jsp; cited from earlier work
HCT-116 = system: HCT-116; set-up: method as in https://dtp.cancer.gov/dtpstandard/dwindex/index.jsp; settings: ref https://dtp.cancer.gov/dtpstandard/dwindex/index.jsp; cited from earlier work
[3] = Homo sapiens, five concentrations

Compound: CS(=O)(=O)Nc1ccc(C(=O)NN=Cc2ccccc2O)cc1 [Compound 7]
- GI% (CCRF-CEM): 63%
- GI% (HL-60(TB)): 22%
- GI% (K-562): 26%
- GI% (SR): 67%
- GI% (HOP-62): 61%
- GI% (HOP-92 [1]): 44%
- GI% (HCC-2998): 41%
- GI% (KM12): 35%
- GI% (SF-268): 48%
- GI% (U251): 56%
- GI% (M14): 44%
- GI% (SK-MEL-28): 37%
- GI% (NCI/ADR-RES): 41%
- GI% (ACHN): 46%
- GI% (MCF-7): 21%
- GI% (HS 578T): 11%
- GI% (BT-549): 27%
- IC50 (COX-2): 20900 ± 820 nM
- Bcl2, Gene Expression (Fold Change) (Bcl-2): 0.201 fold change
- Casp8, Gene Expression (Fold Change) (caspase-8): 5.171 fold change
- IC50 (HER2): 183 ± 11 nM

Compound: CCN(CC)c1ccc(C=NNC(=O)c2ccc(NS(C)(=O)=O)cc2)c(O)c1 [Compound 8]
- GI% (CCRF-CEM): 94%
- GI50 (CCRF-CEM; [3]): 177 nM
- GI% (HL-60(TB)): 99%
- GI50 (HL-60(TB); [3]): 300 nM
- GI% (K-562): 86%
- GI50 (K-562; Homo sapiens, K562, five concentrations): 492 nM
- GI% (SR): 89%
- GI50 (SR; [3]): 141 nM
- GI% (HOP-62): 87%
- GI50 (HOP-62; [3]): 189 nM
- GI% (HOP-92 [1]): 61%
- GI50 (HOP-92 [1]; [3]): 443 nM
- GI% (HCC-2998): 62%
- GI50 (HCC-2998; [3]): 356 nM
- GI% (KM12): 85%
- GI50 (KM12; [3]): 509 nM
- GI% (SF-268): 77%
- GI50 (SF-268; [3]): 252 nM
- GI% (U251): 76%
- GI50 (U251; Homo sapiens, U-251, five concentrations): 226 nM
- GI% (M14): 100%
- GI50 (M14; [3]): 351 nM
- GI% (SK-MEL-28): 77%
- GI50 (SK-MEL-28; [3]): 381 nM
- GI% (NCI/ADR-RES): 63%
- GI50 (NCI/ADR-RES; [3]): 2580 nM
- GI% (ACHN): 84%
- GI50 (ACHN; [3]): 513 nM
- GI% (MCF-7): 94%
- GI50 (MCF-7; Homo sapiens, MCF7, five concentrations): 416 nM
- GI% (HS 578T): 44%
- GI50 (HS 578T; [3]): 1470 nM
- GI% (BT-549): 88%
- GI50 (BT-549; [3]): 569 nM
- IC50 (COX-2): 12800 ± 510 nM
- Bcl2, Gene Expression (Fold Change) (Bcl-2): 0.232 fold change
- Casp8, Gene Expression (Fold Change) (caspase-8): 6.456 fold change
- IC50 (HER2): 464 ± 18 nM

Compound: C#Cc1cccc(Nc2ncnc3cc(OCCOC)c(OCCOC)cc23)c1 [Erlotinib, erlotinib]
- GI50 (HOP-92 [2]): 3980 nM
- GI50 (HCT-116): 6310 nM

Compound: COc1cc2ncnc(Nc3ccc(F)c(Cl)c3)c2cc1OCCCN1CCOCC1 [Gefitinib, gefitinib]
- GI50 (HOP-92 [2]): 316 nM
- GI50 (HCT-116): 3160 nM
